In patent US9717678B2, “Delivery systems for improving oral bioavailability of Fenobam, its hydrates, and salts” (MURTY PHARMACEUTICALS, INC., priority 2011, dated 2017):
Converted amounts (≈) assume the structure as drawn.

Test: Equilibrium solubility by HPLC
Type: physicochemical
[1] = comparative equilibrium solubility (Table 2), solvent 0.1 N HCl
[2] = comparative equilibrium solubility (Table 2), solvent PEG 400
[3] = comparative equilibrium solubility (Table 2), solvent Phosphate Buffer, pH 7.4

Structure (SMILES): CN1CC(=O)N=C1NC(=O)Nc1cccc(Cl)c1.O=S(=O)(O)O [Fenobam Sulfate]
- Solubility [1]: 303 µg/mL
- Solubility [2]: 5650 µg/mL
- Solubility [3]: 27 µg/mL

Structure (SMILES): CN1CC(=O)N/C1=N\C(=O)Nc1cccc(Cl)c1.O [Fenobam Monohydrate]
- Solubility [1]: 308 µg/mL
- Solubility [2]: 34500 µg/mL
- Solubility [3]: 39 µg/mL

Structure (SMILES): CN1CC(=O)NC1=NC(=O)Nc1cccc(Cl)c1 [Fenobam]
- Solubility [1]: 392 µg/mL (≈ 1470 µM)
- Solubility [2]: 24400 µg/mL (≈ 91500 µM)
- Solubility [3]: 33 µg/mL (≈ 124 µM)
- Solubility (equilibrium solubility, solvent 0.1 N HCl): 392 µg/mL (≈ 1470 µM)
- Solubility (equilibrium solubility, solvent 10% Cremophor RH 40): 643 µg/mL (≈ 2410 µM)
- Solubility (equilibrium solubility, solvent 10% Polysorbate 80): 1190 µg/mL (≈ 4460 µM)
- Solubility (equilibrium solubility, solvent 20% Polyethylene Glycol (PEG) 400): 124 µg/mL (≈ 465 µM)
- Solubility (equilibrium solubility, solvent 20% Propylene Glycol): 65 µg/mL (≈ 244 µM)
- Solubility (equilibrium solubility, solvent 30% HP-Beta-Cyclodextrin): 2190 µg/mL (≈ 8210 µM)
- Solubility (equilibrium solubility, solvent Acetate Buffer, pH 4.0): 25 µg/mL (≈ 93.7 µM)
- Solubility (equilibrium solubility, solvent Ethanol): 2900 µg/mL (≈ 10900 µM)
- Solubility (equilibrium solubility, solvent Phosphate Buffer, pH 7.4): 33 µg/mL (≈ 124 µM)
- Solubility (equilibrium solubility, solvent Polyethylene Glycol (PEG) 400): 24400 µg/mL (≈ 91500 µM)
- Solubility (equilibrium solubility, solvent Propylene Glycol): 4460 µg/mL (≈ 16700 µM)
